The text below walks through data of patent US20180214563A1, “IMMUNOSTIMULATORY NANOCARRIER” (University of Pittsburgh - Of the Commonwealth System of …, priority 2015, published 2018).

The data set deals with 4T1.2 cells. As to the kind of experiment: In vitro cytotoxicity, MTT assay, 4T1.2. In kind it is cell-based, mouse. As to conditions: 72 h. The protocol:
4T1.2 , PC3, Panc02, and B16 cells at 2000 cells/well were seeded in 96-well plates, respectively. […] After 3 days of incubation, 20 μL of 3-(4,5-dimethylthiazol-2-yl)-2,5-diphenyltetrazoliumbromide (MTT) in DPBS (5 mg/mL) was added to each well and cells were further incubated for 2 h. Medium was removed and MTT formazan crystals were solubilized by 100 μL of DMSO per well. Absorbance of each well was measured with a microplate reader at wavelength of 550 nm. Untreated wells were used as controls. Cell viability was calculated as [(ODtreated-ODblank)/(ODcontrol-ODblank)×100%].

SMILES strings stand for the structures.

For the compound `CC(=O)O[C@H]1C(=O)[C@@]2(C)[C@H]([C@H](OC(=O)c3ccccc3)[C@]3(O)C[C@H](OC(=O)[C@H](O)[C@@H](NC(=O)c4ccccc4)c4ccccc4)C(C)=C1C3(C)C)[C@]1(OC(C)=O)CO[C@@H]1C[C@@H]2O` [PTX, paclitaxel], the “cytotoxicity (tumor cell growth inhibition)” value is recorded as “inhibited the tumor cell growth in a concentration-dependent manner”.
